Laboratory results reported in patent US20120010260A1, “METHOD FOR TREATING NERVOUS SYSTEM DISORDERS AND CONDITIONS” (priority 2004, published 2012).
Values joined by “and” are separate entries in the source; they are usually repeats but may differ in a detail not shown here. Equal values may be shown once.

Experiments:
[1] = test system: Male Sprague-Dawley rats with L5/L6 spinal nerve ligation; assay: Spinal nerve ligation (SNL) model of neuropathic pain, tactile hypersensitivity (von Frey); format: in vivo; conditions: rat, 30 mg/kg IP, FIG. 7
Excerpt: Subjects. Male Sprague-Dawley rats (Indianapolis, Ind.) weighing 150 to 200 g at time of arrival, were individually housed in wire cages in a climate-controlled room. A 12-hour light/dark cycle (lights on at 0630) was in effect, and food and water were available ad libitum.
Surgery—Spinal Nerve Ligation. Rats were anesthetized with 3.5% halothane in O2 at 1 L/min and maintained with 1.5% halothane in O2 during surgery. Ligation of the L5 and L6 nerves was produced by an incision through the left paraspinal muscles. The left L5 and L6 spinal nerves were isolated adjacent to the vertebral column and ligated tightly with 6-0 silk suture just distal to the dorsal root ganglion. […]
Assessment of tactile hypersensitivity. […] Baseline tactile sensitivity was assessed using a series of calibrated von Frey monofilaments (Stoelting; Wood Dale, Ill.) 0 to 3 days before surgery. […] The ability of a single dose of test compound to reverse established hypersensitivity was assessed using a time course procedure. […]
Results are presented as the 50% threshold values (50% threshold in g force) estimated by the Dixon non-parametric test. […] Significant main effects were analyzed further by subsequent least significant difference analysis. […]
Reversal of tactile hypersensitivity was defined as a return to baseline of the tactile sensitivity and was calculated according to the following equation: […]

[2] = biological target: T1, human serotonin transporter (hSERT) (Homo sapiens, UniProt P31645); assay: Serotonin (5-HT) uptake assay (hSERT function uptake) in JAR cells; format: cell-based; conditions: [3H]5-HT uptake
T1 construct: cells were stimulated with staurosporine (40 nM) to increase the expression of the 5-HT transporter; host or cells: JAR (human placental choriocarcinoma)
Method: The methods for 5-HT functional reuptake using the JAR cell line were modified using a previous literature report. […] On day 2, cells were stimulated with staurosporine (40 nM) to increase the expression of the 5-HT transporter. On day 3, cells were removed from the cell incubator two hours prior to assay and maintained at room temperature to equilibrate the growth medium to ambient oxygen concentration. […] Twenty-five microliters of assay buffer (maximum 5-HT uptake) or test compound were added directly to triplicate wells containing cells in 200 μl of assay buffer. The cells were incubated with the compound for 10 minutes (37° C.). […] The cells were incubated with the reaction mixture for 5 minutes at 37° C. The 5-HT uptake reaction was terminated by decanting the assay buffer.

[3] = biological target: T2, human dopamine transporter (hDAT) (Homo sapiens, UniProt Q01959); assay: Dopamine transporter (hDAT) membrane binding assay, 3H-WIN 35,428
T2 construct: purchased Perkin Elmer RBHDATM

[4] = biological target: human norepinephrine transporter (hNET) (Homo sapiens, UniProt P23975); conditions: read-out: hNET function uptake (EC50 in nm); MDCK-Net6 cells, [3H]NE uptake
[5] = test system: ovariectomized (OVX) rats, tail skin temperature (TST); assay: Telemetry rat model of ovariectomy-induced thermoregulatory dysfunction (tail skin temperature); format: in vivo; conditions: 30 mg/kg, sc; p<0.05 compared to vehicle control
Excerpt: This model has been modified from a previously reported protocol describing estrogen regulation of diurnal tail skin temperature (TST) patterns (Berendsen, et al., European Journal of Pharmacology, 2001, 419(1): 47-54). […] A temperature and physical activity transmitter (PhysioTel TA10TA-F40, Data Sciences International) was implanted subcutaneously in the dorsal scapular region and the tip of the temperature probe was tunneled subcutaneously 2.5 cm beyond the base of the tail. After a 7-day recovery period, TST readings were continuously recorded for the remainder of the study. Tail skin temperature readings were collected from each animal every 5 minutes with values obtained over a 10 second sampling period. The day before test day, an average baseline TST value was calculated for each animal by averaging temperature readings recorded during the 12 hour active (dark) phase. […]
Statistical analysis: Evaluation of a compound's ability to restore normal lowering of TST in the telemetry model was analyzed using hourly TST values calculated for each animal by averaging the 12 temperature readings obtained every 5 minutes over that recording time. […]
The effect of test compound is measured by evaluating the following parameters in this model: onset of action, duration of effect on TST, maximal change in TST and mean change in TST over the duration of the compound effect.

T2 sequence (Q01959 whole entry): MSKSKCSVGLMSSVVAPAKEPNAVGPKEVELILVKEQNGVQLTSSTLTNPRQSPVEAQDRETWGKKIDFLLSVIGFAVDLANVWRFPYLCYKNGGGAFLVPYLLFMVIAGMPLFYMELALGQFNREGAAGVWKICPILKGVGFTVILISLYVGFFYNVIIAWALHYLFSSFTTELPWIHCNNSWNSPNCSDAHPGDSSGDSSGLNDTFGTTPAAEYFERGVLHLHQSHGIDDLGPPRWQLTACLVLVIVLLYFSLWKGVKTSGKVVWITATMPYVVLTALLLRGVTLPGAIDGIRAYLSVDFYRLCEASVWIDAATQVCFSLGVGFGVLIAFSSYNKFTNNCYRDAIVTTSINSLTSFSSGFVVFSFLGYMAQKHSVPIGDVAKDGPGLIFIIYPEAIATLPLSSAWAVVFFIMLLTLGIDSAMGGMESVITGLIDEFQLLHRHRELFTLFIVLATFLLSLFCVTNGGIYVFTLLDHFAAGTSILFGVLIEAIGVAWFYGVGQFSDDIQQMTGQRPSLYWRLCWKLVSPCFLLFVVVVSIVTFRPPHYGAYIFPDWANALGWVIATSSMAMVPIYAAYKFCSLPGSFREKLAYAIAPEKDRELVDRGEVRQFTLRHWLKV
human norepinephrine transporter (hNET), sequence (P23975 whole entry): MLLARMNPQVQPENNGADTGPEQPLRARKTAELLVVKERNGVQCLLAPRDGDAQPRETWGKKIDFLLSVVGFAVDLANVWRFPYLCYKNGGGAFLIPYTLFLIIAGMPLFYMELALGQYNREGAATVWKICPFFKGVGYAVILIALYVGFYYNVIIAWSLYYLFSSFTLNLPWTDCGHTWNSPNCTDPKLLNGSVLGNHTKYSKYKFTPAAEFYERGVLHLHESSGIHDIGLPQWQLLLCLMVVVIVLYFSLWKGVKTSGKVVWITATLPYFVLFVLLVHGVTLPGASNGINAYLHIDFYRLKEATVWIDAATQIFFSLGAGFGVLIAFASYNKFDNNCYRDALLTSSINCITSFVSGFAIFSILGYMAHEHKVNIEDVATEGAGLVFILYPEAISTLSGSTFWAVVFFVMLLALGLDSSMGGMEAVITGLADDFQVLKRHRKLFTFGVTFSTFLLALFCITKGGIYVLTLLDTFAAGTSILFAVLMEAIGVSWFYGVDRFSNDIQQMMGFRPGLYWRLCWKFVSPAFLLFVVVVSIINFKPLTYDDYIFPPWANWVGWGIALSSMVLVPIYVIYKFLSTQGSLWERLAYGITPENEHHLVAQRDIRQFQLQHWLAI
T1 sequence (P31645 whole entry): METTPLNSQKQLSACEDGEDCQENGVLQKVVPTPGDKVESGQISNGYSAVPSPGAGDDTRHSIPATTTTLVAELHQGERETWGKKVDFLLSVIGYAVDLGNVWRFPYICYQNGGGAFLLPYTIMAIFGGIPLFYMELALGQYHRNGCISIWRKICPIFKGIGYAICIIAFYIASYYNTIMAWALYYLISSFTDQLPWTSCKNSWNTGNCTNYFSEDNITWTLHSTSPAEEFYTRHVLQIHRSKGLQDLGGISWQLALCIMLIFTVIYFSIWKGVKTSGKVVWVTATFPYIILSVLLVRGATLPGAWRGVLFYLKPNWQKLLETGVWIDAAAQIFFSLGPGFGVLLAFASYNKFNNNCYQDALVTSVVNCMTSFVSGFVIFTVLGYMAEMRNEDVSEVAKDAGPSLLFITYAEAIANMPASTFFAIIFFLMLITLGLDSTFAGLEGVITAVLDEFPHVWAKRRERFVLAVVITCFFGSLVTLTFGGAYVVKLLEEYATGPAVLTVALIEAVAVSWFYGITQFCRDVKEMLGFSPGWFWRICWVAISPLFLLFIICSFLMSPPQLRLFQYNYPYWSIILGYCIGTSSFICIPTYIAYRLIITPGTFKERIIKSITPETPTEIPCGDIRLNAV

Structure (SMILES) | Reversal of tactile allodynia in the SNL neuropathic pain model [1] | EC50 [2] [µM] | hDAT binding (% I at 10 μM) [3] | EC50 [4] [µM] | Restoration of normal TST in OVX-induced thermoregulatory dysfunction telemetry model [5] | hDAT binding (% I at 1 μM) ([3]; 1 μM) [% I]
Clc1ccc(C23CNCC2C3)cc1Cl (racemic) [Racemic 1-(3,4-dichlorophenyl)-3-azabicyclo[3.1.0]hexane, 1-(3,4-dichlorophenyl)-3-azabicyclo[3.1.0]hexane] | significantly reverses tactile allodynia | – | – | – | – | –
Cc1ccc(C23CNCC2C3)cc1 (single isomer, unassigned; (+)) [(+)-1-(4-methylphenyl)-3-azabicyclo[3.1.0]hexane] | – | 7.35 | 51 % I | 0.148 | restores normal TST | –
Cc1ccc(C23CNCC2C3)cc1 (racemic) [Racemic 1-(4-methylphenyl)-3-azabicyclo[3.1.0]hexane, 1-(4-methylphenyl)-3-azabicyclo[3.1.0]hexane] | – | – | 45 % I and 52.1 % I | – | restores normal TST | 26.5
